# In US20080069776A1, “HISTOFLUORESCENT STAIN FOR ENDOSCOPY” (PENTAX CORPORATION, priority 2006, published 2008):
# How the values were obtained:
# [1] = Absorbance and fluorescence spectra of the dye in distilled water (spectrophotometer / fluorescence spectrophotometer); format: physicochemical; conditions: for maximum absorption wavelength / maximum fluorescence wavelength / maximum excitation wavelength: 0.001 mg/mL in distilled water; for maximum absorption wavelength: absorbance measured 200 to 750 nm; for maximum fluorescence wavelength: excited at maximum absorption wavelength; for maximum fluorescence wavelength / maximum excitation wavelength: fluorescence spectrophotometer; for fluorescence in solution state: stain prepared as a solution, red wavelength region
# Method: Brilliant Green (manufactured by Sigma-Aldrich Company, B4014-25G) was adjusted with distilled water to a concentration of 0.001 mg/mL, and the light absorbance was continuously measured over a wavelength range from 200 to 750 nm using a spectrophotometer (manufactured by Shimadzu Corporation, BioSpec-1600) to determine the wavelength at which the absorption was the maximum. The maximum absorption wavelength of 625 nm thus obtained was irradiated as an excitation wavelength, and the wavelength of the scattered light detected in the perpendicular direction to the light axis of the excitation light was measured using a fluorescence spectrophotometer (manufactured by Shimadzu Corporation, RF-1500), thus to obtain a maximum fluorescence wavelength of 625 nm. The maximum excitation wavelength measured using this fluorescence spectrophotometer was 627 nm.
# This implies that the compound is not undergoing the process of excitation by an irradiated light and emission of fluorescence.
# As a comparison to Brilliant Green, the wavelength pattern of Rhodamine B, which stains the inner part of cells in the lumen of the large intestine or the like in the same manner as Brilliant Green does, was measured.
# [2] = biological target: T1, Albumin (from Bovine Serum, Globulin Free) (Bos taurus, UniProt P02769); assay: Fluorescence spectrum of liquid mixture of Brilliant Green and albumin; format: physicochemical
# T1 construct: Albumin (from Bovine Serum, Globulin Free); purchased Wako Pure Chemical Industries, Ltd. 013-15104; host or cells: bovine serum
# T1 sequence (P02769 25-607): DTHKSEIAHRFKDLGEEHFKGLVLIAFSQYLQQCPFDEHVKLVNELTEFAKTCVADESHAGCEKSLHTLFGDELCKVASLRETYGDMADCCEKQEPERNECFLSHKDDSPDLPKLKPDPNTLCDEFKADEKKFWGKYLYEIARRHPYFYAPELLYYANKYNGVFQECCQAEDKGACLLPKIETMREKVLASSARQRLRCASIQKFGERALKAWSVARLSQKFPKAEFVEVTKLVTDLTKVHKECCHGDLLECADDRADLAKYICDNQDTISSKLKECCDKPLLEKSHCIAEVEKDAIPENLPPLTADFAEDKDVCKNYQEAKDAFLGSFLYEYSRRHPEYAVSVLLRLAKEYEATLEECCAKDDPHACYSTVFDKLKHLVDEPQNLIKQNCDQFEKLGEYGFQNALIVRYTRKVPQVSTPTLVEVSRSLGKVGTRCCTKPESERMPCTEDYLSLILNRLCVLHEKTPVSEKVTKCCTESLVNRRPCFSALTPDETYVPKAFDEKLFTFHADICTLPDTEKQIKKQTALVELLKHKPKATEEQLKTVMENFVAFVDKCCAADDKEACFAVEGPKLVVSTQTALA
# Method: Brilliant Green (manufactured by Sigma-Aldrich Company, B4014-25G) was prepared as a solution at 0.1 mg/mL using distilled water. Albumin (from Bovine Serum, Globulin Free; Wako Pure Chemical Industries, Ltd., 013-15104) was prepared as a solution at 2.0 mg/mL using physiological saline. Using a 0.1 M phosphate buffer solution (pH 5) and the 2.0 mg/mL albumin solution prepared above, a liquid mixture of 0.01 mg/mL Brilliant Green and albumin was prepared. The maximum absorption wavelength of Brilliant Green of 625 nm was irradiated as the excitation wavelength, and the wavelength of the scattered light detected in the perpendicular direction to the light axis of the excitation light, was measured using a spectrophotometer (manufactured by Shimadzu Corporation, RF-1500). The maximum fluorescence wavelength was 651 nm.
# As a comparison to the liquid mixture of Brilliant Green and albumin, the maximum fluorescence wavelength of an albumin solution was measured with respect to an excitation wavelength of 625 nm, which was shown in FIG. 4.
# [3] = test system: large intestine; assay: Fluorescence observation of extracted large intestine stained with the dye, confocal microscope; design: species or system mouse
# Method: Brilliant Green (manufactured by Sigma-Aldrich Company, B4014-25G) was prepared as a solution using distilled water, and the concentration was adjusted to 1.0 mg/mL.
# A mouse (ddY, 13 weeks old, male) was subjected to laparotomy under anesthesia, and the large intestine was extracted. Immediately after extraction, the prepared solution of Brilliant Green was applied onto the large intestine, and fluorescence observation of the specimen by a confocal imaging system using a confocal microscope (manufactured by Leica Corp., TCPSP2) was performed. Here, the stainability, penetrability, and fluorescence properties of Brilliant Green were examined.
# Observation was performed for the cross-sections at every 5 μm from the luminal surface layer of the flesh specimen of extracted large intestine, to the depth direction (FIG. 5).
SMILES,maximum absorption wavelength [1] [nm],maximum fluorescence wavelength [1] [nm],maximum excitation wavelength [1] [nm],fluorescence in solution state [1],"maximum fluorescence wavelength ([2]; 0.01 mg/mL Brilliant Green with albumin, 0.1 M phosphate buffer pH 5, excitation 625 nm) [nm]",fluorescence when bound to albumin ([2]; light source in the red wavelength region),"depth to which observation could be sufficiently made from the luminal surface layer ([3]; 1.0 mg/mL solution applied onto extracted mouse large intestine, cross-sections every 5 μm) [μm]","stainability of the tissue (cross-sectional images) ([3]; 1.0 mg/mL, sites 10 μm and 15 μm deep from the surface layer)"
CCN(CC)c1ccc(C(=C2C=CC(=[N+](CC)CC)C=C2)c2ccccc2)cc1.O=S(=O)([O-])O [Brilliant Green],625,625,627,no fluorescence was detected,651,"emits fluorescence, when bound to albumin",35,"The cytoplasm is well stained, while the interstitial space is contrastively dark"
"CCN(Cc1cccc(S(=O)(=O)[O-])c1)c1ccc(C(=C2C=CC(=[N+](CC)Cc3cccc(S(=O)(=O)[O-])c3)C=C2)c2ccccc2S(=O)(=O)[O-])cc1.[Na+].[Na+] [Brilliant Blue FCF, reference compound]",629,650,619,,,,,
"CCN(CC)c1ccc2c(-c3ccccc3C(=O)O)c3ccc(=[N+](CC)CC)cc-3oc2c1.[Cl-] [Rhodamine B, reference compound]",,,,exhibits intense fluorescence even in a solution state,,,,
